Laboratory results: patent US20070224194A1, “Methods for Inhibiting Angiogenesis and/or Lymphangiogenesis” (LUDWIG INSTITUTE FOR CANCER RESEARCH, priority 2004, published 2007)
The star is where a group is joined. Decanoyl = CCCCCCCCCC(=O)*; CH2Cl = ClC*

How the values were obtained:
[1] = system: proteolytic processing of VEGF-D; assay: Processing of VEGF-D secreted by 293EBNA cells expressing VEGF-D-FULL-N-FLAG (immunoprecipitation/Western blot); format: cell-based, human; conditions: for proteolytic processing of full-length VEGF-D: 100 μM
Protocol: 293EBNA cells stably transfected with an expression construct encoding VEGF-C-FULL-N-Myc (full-length VEGF-C tagged with Myc at the N-terminus) or VEGF-D-FULL-N-FLAG (full-length VEGF-D tagged with FLAG at the N-terminus) secrete fully and partially processed forms of VEGF-C or VEGF-D into the culture medium (Joukov et al., EMBO J. 16:3898-3911 1997; Stacker et al., J. Biol. Chem. 274: 32127-32136, 1999). These cells were grown overnight in 24-well plates, seeded with 8×10^4 cells per well. At the time when cultures were initiated in these plates, growth medium was supplemented with Dec-RVKR-CMK (Calbiochem) (dissolved in methanol) to a final concentration of 0, 1, 10, 50 or 100 μM. Solvent control cultures were also established, in which the medium was supplemented with methanol at concentrations equal to those present in the cultures treated with inhibitor. After 18 hours of growth (at 37° C., 10% CO2 in a humidified environment), conditioned cell culture medium was removed from the cells and cleared by centrifugation (5 minutes, 250×g, 4° C.).
VEGF-C species were immunoprecipitated from conditioned medium by addition of anti-VEGF-C antibody that binds the VHD and C-terminal propeptide (R&D Systems). VEGF-D species were immunoprecipitated by addition of A2 antiserum that binds within the VHD of VEGF-D (Stacker et al., J. Biol. Chem. 274: 32127-32136, 1999). Immune complexes were allowed to form for 2 hours at 4° C. with gentle agitation and precipitated by addition of 10 μl of protein A sepharose beads and incubation for 2 hours at 4° C. with gentle agitation. Protein A sepharose complexes were recovered by centrifugation (5 minutes, 250×g, 4° C.) and washed twice with ice cold 50 mM Tris, 150 mM NaCl, pH 8.0. The precipitated VEGF-C and VEGF-D species were then analysed by Western blot using biotinylated antibodies against the VHD and C terminus of VEGF-C, or the VHD of VEGF-D (R&D Systems) and streptavidin-horse radish peroxidase conjugate (Zymed) (FIGS. 1 and 2). […]
(§1) The 293EBNA cell lines expressing VEGF-D-FULL-FLAG, VEGF-DΔC or VEGF-DΔN were seeded into 24-well plates (8×10^4 cells/well), in medium supplemented with Dec-RVKR-CMK dissolved in methanol, to a final concentration of 0, 1, 10, 50 or 100 μM. […] The precipitated VEGF-D species were then analysed by reducing SDS-PAGE and Western blotting using a biotinylated antibody against the VHD of human VEGF-D (R&D Systems), and Streptavidin-horse radish peroxidase conjugate (Zymed).

[2] = system: proteolytic processing of VEGF-DΔC; assay: Processing of VEGF-DΔC by 293EBNA cells (cleavage of N-terminal propeptide from VHD); format: cell-based, human; conditions: for band representing mature VHD from VEGF-DΔC: 1, 10, 50, 100 μM, 18 hours
Description: (§2) An expression plasmid encoding a truncated derivative of human VEGF-D consisting of the N-terminal propeptide and the VHD tagged at the carboxyl terminus with the FLAG epitope (referred to as VEGF-DΔC) (FIG. 3, top panel) has been previously described (Stacker et al, J. Biol. Chem. 274 32127-32136, 1999). The VEGF-DΔC protein construct facilitates study of cleavage of the N-terminal propeptide from the VHD. The conditioned media of 293EBNA cells stably transfected with the VEGF-DΔC expression plasmid contain a mixture of VEGF-D proteins, including unprocessed VEGF-DΔC, and the proteolytically processed VHD. A second cell line was generated by stable transfection of 293EBNA cells with an expression construct encoding VEGF-DΔN, a truncated derivative of human VEGF-D consisting of the VHD tagged at the amino terminus with the FLAG epitope and C-terminal propeptide (FIG. 3, top panel). This protein construct facilitates study of cleavage of the C-terminal propeptide from the VHD. The conditioned media of 293EBNA cells expressing VEGF-DΔN contain a mixture of VEGF-D proteins, consisting of unprocessed VEGF-DΔN, and the proteolytically processed VHD. The VEGF-DΔN expression plasmid was constructed by replacing the 2-kb EcoRV fragment of the pAPEX-3 construct for full-length VEGF-D with the 2-kb EcoRV fragment of the pAPEX-3 construct for VEGF-DΔNΔC-FLAG (Stacker et al, J. Biol. Chem. 274 32127-32136, 1999).
The 293EBNA cell lines expressing VEGF-D-FULL-FLAG, VEGF-DΔC or VEGF-DΔN were seeded into 24-well plates (8×10^4 cells/well), in medium supplemented with Dec-RVKR-CMK dissolved in methanol, to a final concentration of 0, 1, 10, 50 or 100 μM. After 18 hours incubation (37° C., 10% CO2 in an humidified incubator), conditioned cell culture media were removed and clarified by centrifugation (5 minutes, 250×g, 4° C.). VEGF-D species were immunoprecipitated from conditioned media of 293EBNA VEGF-DΔC cells by addition of M2-agarose beads (Sigma-Aldrich), that bind the FLAG epitope attached to the carboxyl-terminus of the VHD, and from conditioned media of 293EBNA VEGF-DΔN cells by addition of A2 antiserum, that binds to epitopes within the VHD (Stacker et al, J. Biol. Chem. 274 32127-32136, 1999), followed by incubation with protein-A sepharose beads. Beads and bound proteins were recovered by centrifugation (5 minutes, 250×g, 4° C.) and washed twice with Tris-buffered saline (TBS; 50 mM Tris-Cl, 150 mM NaCl, pH 8.0). The precipitated VEGF-D species were then analysed by reducing SDS-PAGE and Western blotting using a biotinylated antibody against the VHD of human VEGF-D (R&D Systems), and Streptavidin-horse radish peroxidase conjugate (Zymed).

[3] = system: proteolytic processing of VEGF-DΔN; assay: Processing of VEGF-DΔN by 293EBNA cells (cleavage of C-terminal propeptide from VHD); format: cell-based, human; conditions: for band representing mature VHD from VEGF-DΔN: 1, 10, 50, 100 μM, 18 hours
Description: as §2
as §1, with “μM. After 18 hours incubation (37° C., 10% CO2 in an humidified incubator), conditioned cell culture media were removed and clarified by centrifugation (5 minutes, 250×g, 4° C.).” for “μM.”

Furin = Furin (Homo sapiens, UniProt P09958); conditions: cited from earlier work
Sequence of Furin (P09958 108-794, species assumed): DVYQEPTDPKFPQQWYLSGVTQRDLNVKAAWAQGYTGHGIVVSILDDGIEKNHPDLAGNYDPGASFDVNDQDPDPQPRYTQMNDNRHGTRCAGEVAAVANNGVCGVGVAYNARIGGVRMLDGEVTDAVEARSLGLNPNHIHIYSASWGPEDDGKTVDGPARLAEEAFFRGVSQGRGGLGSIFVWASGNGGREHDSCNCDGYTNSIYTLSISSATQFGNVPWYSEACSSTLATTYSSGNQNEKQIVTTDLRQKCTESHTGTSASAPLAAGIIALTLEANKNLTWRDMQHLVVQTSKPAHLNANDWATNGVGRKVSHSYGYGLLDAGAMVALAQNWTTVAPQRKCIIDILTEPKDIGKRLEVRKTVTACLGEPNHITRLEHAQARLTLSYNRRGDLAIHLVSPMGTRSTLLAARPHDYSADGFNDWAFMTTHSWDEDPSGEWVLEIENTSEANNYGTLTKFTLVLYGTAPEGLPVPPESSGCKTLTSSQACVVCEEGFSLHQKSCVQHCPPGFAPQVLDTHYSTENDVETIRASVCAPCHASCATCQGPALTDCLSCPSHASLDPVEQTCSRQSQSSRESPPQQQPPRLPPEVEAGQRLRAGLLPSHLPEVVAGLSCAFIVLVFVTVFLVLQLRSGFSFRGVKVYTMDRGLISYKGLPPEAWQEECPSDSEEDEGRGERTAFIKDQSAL

Decanoyl-Arg-Val-Lys-Arg-chloromethylketone (Decanoyl-RVKR-CH2Cl) [Dec-RVKR-CMK]
abundance of fully and partially processed forms of VEGF-D ([1]; 0, 1, 10, 50 or 100 μM, 18 hours, Western blot): dramatically reduced in abundance in a dose-dependent manner
proteolytic processing of full-length VEGF-D ([1]; 18 hours): totally blocked
proteolytic processing of full-length VEGF-D ([1]; 18 hours, listed as dec-RVKR-CMK): complete inhibition
proteolysis of VEGF-D-FULL-N-FLAG ([1]; concentrations lower than 100 μM): incompletely inhibited
proteolytic cleavage of the N-terminal propeptide from the VHD, at both Major and Minor cleavage sites [2]: completely abrogated
proteolytic processing of VEGF-DΔC ([2]; 100 μM): completely blocked
band representing mature VHD from VEGF-DΔC [2]: reduced in abundance in a dose dependent manner
band representing mature VHD from VEGF-DΔC ([2]; listed as dec-RVKR-CMK): blocked each of these processing events in a dose-dependent fashion
proteolytic processing of VEGF-DΔN ([3]; 100 μM): completely blocked
band representing mature VHD from VEGF-DΔN [3]: reduced in abundance in a dose dependent manner
band representing mature VHD from VEGF-DΔN ([3]; listed as dec-RVKR-CMK): blocked each of these processing events in a dose-dependent fashion
inhibition of furin (Furin): potently inhibited
